What all share (format): in vivo
The subject of experiment [1] is rice. Description: Safening effect against butachlor injury to rice, safening agent and herbicide incorporated in soil (Example 15, Table I). Set-up: key: herbicide-alone + safener-alone effect (max 100) minus combined effect. The settings on record: safening agent 8.96 kg/h, ~21 days. The method, then:
(§1) A good grade of top soil is placed in a container and compacted to a depth of approximately 1.27 cm. from the top of said container. A predetermined number of rice seeds to be tested are placed on top of the soil. A quantity of soil sufficient to substantially fill the container is measured and placed in a second container. A measured quantity of the safening agent dispersed or dissolved in a suitable carrier is applied to the soil in the second container. A measured quantity of butachlor dispersed or dissolved in a suitable carrier is then sprayed on the soil already treated with the safening agent. The soil containing the safening agent and herbicide is thoroughly mixed. This mixing is sometimes referred to as incorporation of the herbicide and safening agent into the soil. The mixing or incorporation provides a substantially uniform distribution of the safening agent and herbicide throughout the soil. The seeds are covered with the soil containing the safening agent and herbicide and the pans are leveled. The pans are then placed on a sand bench in the greenhouse and watered from below as needed. The plants are observed at the end of approximately 21 days and the results in terms of percent inhibition of each seed lot are recorded. For each test series a pan of plants is also prepared containing no herbicide and no safening agent as a control. Additionally, for each test, a pan of plants is prepared with soil covering the seed containing no herbicide and only the measured amount of safening agent being incorporated into the soil covering the seeds to ascertain any herbicidal effect of the safening agent alone. For each series of tests the herbicidal effect of the herbicide is observed from pans of plants treated with the same quantity of herbicide alone. The "safening effect" is determined by adding the hericidal effect of the herbicide when applied alone to the herbicidal effect of the safening agent when applied alone (in no instance, however, will this sum be greater than 100) and substracting from that the herbicidal effect obtained when the herbicide and safening agent are incorporated into the soil as discussed above.
Table I summarizes the results obtained when the compounds of the invention were tested in accordance with the procedure of Example 15.

Experiment [2] has as its system rice. The experiment can be described thus: Inhibition of rice, safening agent and butachlor applied to soil surface, flooded pots (Example 18, Table IV). Particulars: ~21 days, mean of two replicates. The procedure:
(§2) 5.08 cm. of a good grade of top soil is placed in a 7.62 cm. deep plastic pot. A predetermined number of barnyard grass seeds are applied to the soil surface. A measured quantity of the safening agent and butachlor dispersed or dissolved in a suitable carrier is applied to the soil surface. Pre-soaked rice is seeded into the pots that were previously flooded with water. The water level is lowered below the soil surface for one week. The pots are flooded just above the soil surface for the duration of the test. The plants are observed at the end of approximately 21 days and the results in terms of percent inhibition recorded. For each test, pots are prepared containing soil treated only with butachlor. For each test, pots are prepared containing soil treated only with the safening agent. Pots are also prepared with untreated soil.

Experiment [3] deals with Barnyard Grass. The experiment can be described thus: Inhibition of barnyard grass, safening agent and butachlor applied to soil surface, flooded pots (Example 18, Table IV). Particulars: ~21 days, mean of two replicates. The method, then: as §2
Experiment [4] deals with rice. The experiment can be described thus: Safening effect against butachlor injury to pre-soaked rice, soil surface application, flooded pots (Example 16, Table II). Set-up: key: herbicide injury alone + safener injury alone (max 100) minus combined injury. Particulars: safening agent 0.56 kg/h, ~21 days, mean of two replicates. The procedure: as §1
A good grade of top soil is placed in a plastic pot. A measured quantity of the safening agent dispersed or dissolved in a suitable carrier is sprayed on the soil surface. A measured quantity of butachlor herbicide dissolved in a solvent is sprayed on the soil surface. Presoaked rice is seeded into the pots that were previously flooded with water and the water level lowered below the soil surface for one week. The pots are flooded at least up to the soil surface for the duration of the test. The plants are observed at the end of approximately 21 days and the results in terms of the percent inhibition of rice is recorded. As in Example 15, for each test pots are prepared containing soil treated only with butachlor. For each test, pots are also prepared containing soil treated only with the safening agent. Pots are also prepared in which the soil is not treated with either the herbicide or the safening agent. The safening effect is determined in accordance with Example 15.
Table II summarizes the results obtained when the compounds of the invention were tested in accordance with the procedure of Example 16.

Experiment [5] relates to rice. The experiment can be described thus: Inhibition of rice by butachlor and safening agent sprayed on soil surface, flooded pots (Example 17, Table III). Particulars: ~21 days, mean of two replicates. The method, then:
as §2, with “agent” for “agent and butachlor”, “is sprayed on the soil surface. A measured quantity of butachlor herbicide dissolved in a solvent is sprayed on” for “is applied to”, “one week to allow barnyard grass to emerge.” for “one week.”, “prepared containing” for “prepared with”

In experiment [6] the test system is Barnyard Grass. Description: Inhibition of barnyard grass by butachlor and safening agent sprayed on soil surface, flooded pots (Example 17, Table III). The settings on record: ~21 days, mean of two replicates. The procedure:
as §2, with “agent” for “agent and butachlor”, “is sprayed on the soil surface. A measured quantity of butachlor herbicide dissolved in a solvent is sprayed on” for “is applied to”, “one week to allow barnyard grass to emerge.” for “one week.”, “prepared containing” for “prepared with”

Where [7] appears, read: safening agent 1.12 kg/h + butachlor 0.07 kg/h.
The mark [8] stands for this setting: safening agent 1.12 kg/h + butachlor 0.28 kg/h.
[9] abbreviates: safening agent 1.12 kg/h + butachlor 1.12 kg/h.
Setting [10] is: safening agent 0.07 kg/h + butachlor 0.07 kg/h.
Setting [11] is: safening agent 0.07 kg/h + butachlor 0.28 kg/h.
The mark [12] stands for this setting: safening agent 0.07 kg/h + butachlor 1.12 kg/h.
Where [13] appears, read: safening agent 0.28 kg/h + butachlor 0.07 kg/h.
Where [14] appears, read: safening agent 0.28 kg/h + butachlor 0.28 kg/h.
Where [15] appears, read: safening agent 0.28 kg/h + butachlor 1.12 kg/h.

This note sets out measurements from patent US4336389A, “2-Substituted-4-aryl-5-thiazolecarboxylic acids and their derivatives as safening agents” (Monsanto Company, priority 1978, dated 1982).

Structures can show the parent of a compound that is named as a salt.

For `CCOC(=O)c1sc(OCC)nc1-c1ccccc1` [Example 8, Ethyl 2-Ethoxy-4-Phenyl-5-Thiazolecarboxylate], the “Safening Effect” value in the experiment on rice [1] (butachlor 4.48 kg/h) was 75. The “% Inhibition, Rice” value with rice [2] (setting [7]) came out at 30%; in the experiment with rice [2] (setting [8]), 88%; in the experiment on rice [2] (setting [9]) it was 95%; in the experiment with rice [2] (safening agent alone 1.12 kg/h), 0%. Further, the “% Inhibition, Barnyard Grass” value was found to be 100% in the experiment with Barnyard Grass [3] (setting [7]), 100% in the experiment with Barnyard Grass [3] (setting [8]), 100% in the experiment with Barnyard Grass [3] (setting [9]) and 0% with Barnyard Grass [3] (safening agent alone 1.12 kg/h).
Consider `CCOC(=O)c1sc(Oc2ccc(Cl)cc2Cl)nc1-c1cccc(C(F)(F)F)c1` [Example 10, Ethyl 2-(2',4'-Dichlorophenoxy)-4-(m-Trifluoromethylphenyl)-5-Thiazolecarboxylate], for which the “Safening Effect” value with rice [1] (butachlor 4.48 kg/h) was 43; in the experiment on rice [4] (butachlor 0.07 kg/h) it was “* (Safening effect between 0 and 20)”; with rice [4] (butachlor 0.28 kg/h), “* (Safening effect between 0 and 20)”; in the experiment with rice [4] (butachlor 1.12 kg/h), “* (Safening effect between 0 and 20)”.
On to `CCOC(=O)c1sc(Cl)nc1-c1ccccc1Cl` [Example 5, Ethyl 2-Chloro-4-(o-Chlorophenyl)-5-Thiazolecarboxylate], for which the “Safening Effect” value in the experiment on rice [1] (butachlor 6.72 kg/h) is on record as 65.
Regarding `O=C(O)c1sc(Cl)nc1-c1ccccc1` [triethanolamine salt of 2-chloro-4-phenyl-5-thiazolecarboxylic acid], the “% Inhibition, Rice” value came out at 0% with rice [2] (setting [7]), 20% in the experiment with rice [2] (setting [8]), 60% in the experiment on rice [2] (setting [9]) and 0% in the experiment with rice [2] (safening agent alone 1.12 kg/h). The “% Inhibition, Barnyard Grass” value in the experiment with Barnyard Grass [3] (setting [7]) was 88%; with Barnyard Grass [3] (setting [8]), 99%; in the experiment on Barnyard Grass [3] (setting [9]) it was 100%; in the experiment on Barnyard Grass [3] (safening agent alone 1.12 kg/h), 0%.
As for `COC(=O)c1sc(Cl)nc1-c1ccccc1` [Example 13, Methyl 2-Chloro-4-Phenyl-5-Thiazolecarboxylate], in the experiment with rice [1] (butachlor 4.48 kg/h), the “Safening Effect” value came out at 30.
On to `CCOC(=O)c1sc(Oc2ccc(Cl)cc2Cl)nc1-c1ccccc1` [Ethyl 2-(2',4'-dichlorophenoxy)-4-phenyl-5-thiazolecarboxylate], for which the “% Inhibition, Rice” value with rice [2] (setting [7]) worked out at 15%; in the experiment on rice [2] (setting [8]) it was 88%; with rice [2] (setting [9]), 99%; with rice [2] (safening agent alone 1.12 kg/h), 0%. Also, the “% Inhibition, Barnyard Grass” value was found to be 83% in the experiment on Barnyard Grass [3] (setting [7]), 98% with Barnyard Grass [3] (setting [8]), 100% with Barnyard Grass [3] (setting [9]) and 0% in the experiment with Barnyard Grass [3] (safening agent alone 1.12 kg/h).
As to `O=C(Cl)c1sc(Cl)nc1-c1ccccc1` [Example 12, 2-Chloro-4-Phenyl-5-Thiazolecarbonyl Chloride], the “Safening Effect” value is given as 50 in the experiment with rice [1] (butachlor 4.48 kg/h), 35 in the experiment on rice [4] (butachlor 0.07 kg/h), 80 in the experiment with rice [4] (butachlor 0.28 kg/h) and 62 in the experiment on rice [4] (butachlor 1.12 kg/h).
`O=C(O)c1sc(Cl)nc1-c1ccccc1` [Example 11, 2-Chloro-4-Phenyl-5-Thiazolecarboxylic Acid]: the “Safening Effect” value with rice [1] (butachlor 4.48 kg/h) was 50; in the experiment on rice [4] (butachlor 0.07 kg/h), “* (Safening effect between 0 and 20)”; in the experiment with rice [4] (butachlor 0.28 kg/h), 63; with rice [4] (butachlor 1.12 kg/h), 45.
For the compound `CCOC(=O)c1sc(Cl)nc1-c1cccc(C)c1` [Example 6, Ethyl 2-Chloro-4-(m-Tolyl)-5-Thiazolecarboxylate], the “Safening Effect” value with rice [1] (butachlor 6.72 kg/h) was 65.
In the case of `CCOC(=O)c1sc(Cl)nc1-c1cccc(C(F)(F)F)c1` [Example 2, Ethyl 2-Chloro-4-m-Trifluoromethylphenyl-5-thiazolecarboxylate], the “Safening Effect” value was 50 with rice [1] (butachlor 4.48 kg/h); 68 in the experiment on rice [4] (butachlor 0.07 kg/h); 26 in the experiment on rice [4] (butachlor 0.28 kg/h); “* (Safening effect between 0 and 20)” in the experiment on rice [4] (butachlor 1.12 kg/h).
As to `CCOC(=O)c1sc(Cl)nc1-c1ccc(F)cc1` [Example 3, Ethyl 2-Chloro-4-(p-Fluorophenyl)-5-Thiazolecarboxylate], the “Safening Effect” value stood at 65 with rice [1] (butachlor 6.72 kg/h), 30 with rice [4] (butachlor 0.07 kg/h), 73 in the experiment on rice [4] (butachlor 0.28 kg/h) and 62 in the experiment with rice [4] (butachlor 1.12 kg/h). The “Inhibition, Rice” value was 0% with rice [5] (setting [10]); 5% in the experiment on rice [5] (setting [11]); 70% in the experiment with rice [5] (setting [12]); 0% in the experiment with rice [5] (setting [13]); 5% in the experiment on rice [5] (setting [14]); 58% in the experiment on rice [5] (setting [15]). The “Inhibition, Rice” value worked out at 0% in the experiment with rice [5] (setting [7]); 0% in the experiment on rice [5] (setting [8]); 43% with rice [5] (setting [9]); 0% with rice [5] (safening agent alone 0.07 kg/h); 0% in the experiment on rice [5] (safening agent alone 0.28 kg/h); 0% in the experiment on rice [5] (safening agent alone 1.12 kg/h). For the same compound, the “Inhibition, Barnyard Grass” value with Barnyard Grass [6] (setting [10]) is 97%; in the experiment with Barnyard Grass [6] (setting [11]) it was 99%; in the experiment on Barnyard Grass [6] (setting [12]), 100%; in the experiment on Barnyard Grass [6] (setting [13]), 92%; with Barnyard Grass [6] (setting [14]), 100%; in the experiment on Barnyard Grass [6] (setting [15]), 100%. Also, the “Inhibition, Barnyard Grass” value in the experiment with Barnyard Grass [6] (setting [7]) is given as 92%; in the experiment on Barnyard Grass [6] (setting [8]) it was 100%; in the experiment with Barnyard Grass [6] (setting [9]) it was 100%; in the experiment on Barnyard Grass [6] (safening agent alone 0.07 kg/h), 0%; with Barnyard Grass [6] (safening agent alone 0.28 kg/h) it was 0%; with Barnyard Grass [6] (safening agent alone 1.12 kg/h), 0%.
On to `CCCOC(=O)c1sc(Cl)nc1-c1ccccc1` [Example 14, n-Propyl 2-Chloro-4-Phenyl-5-Thiazolecarboxylate], for which, in the experiment with rice [1] (butachlor 4.48 kg/h), the “Safening Effect” value turned out to be 20.
For the compound `CCOC(=O)c1sc(Cl)nc1-c1ccc([N+](=O)[O-])cc1` [Example 7, Ethyl 2-Chloro-4-(p-Nitrophenyl)-5Thiazolecarboxylate], the “Safening Effect” value in the experiment with rice [1] (butachlor 4.48 kg/h) is 25; in the experiment on rice [4] (butachlor 0.07 kg/h), “* (Safening effect between 0 and 20)”; in the experiment with rice [4] (butachlor 0.28 kg/h), 38; in the experiment with rice [4] (butachlor 1.12 kg/h) it was “* (Safening effect between 0 and 20)”.
`CCOC(=O)c1sc(OCC)nc1-c1cccc(C(F)(F)F)c1` [Example 9, Ethyl 2-Ethoxy-4-(m-Trifluoromethylphenyl)-5-Thiazolecarboxylate]: the “Safening Effect” value in the experiment with rice [1] (butachlor 4.48 kg/h) was found to be 20.
